Test results from US5726195A, “Aminoacyl adenylate mimics as novel antimicrobial and antiparasitic agents” (Cubist Pharmaceuticals, Inc., priority 1996, dated 1998).
pIC50: −log10 of the molar value. Values after ≈ are worked out from the molar mass of the structure shown.

Assays:
[1] = biological target: E. Coli. IleRS (isoleucyl-tRNA synthetase) (Escherichia coli, UniProt P00956); experiment: Inhibition of isoleucyl-tRNA synthetase (aminoacylation of tRNA with [3H]isoleucine); type: biochemical; settings: E. coli enzyme; irreversible inhibitors: values are 50% of the active enzyme concentration; read-out: IC50 E.Coli. IleRS
Sequence of E. Coli. IleRS (isoleucyl-tRNA synthetase) (P00956 whole entry): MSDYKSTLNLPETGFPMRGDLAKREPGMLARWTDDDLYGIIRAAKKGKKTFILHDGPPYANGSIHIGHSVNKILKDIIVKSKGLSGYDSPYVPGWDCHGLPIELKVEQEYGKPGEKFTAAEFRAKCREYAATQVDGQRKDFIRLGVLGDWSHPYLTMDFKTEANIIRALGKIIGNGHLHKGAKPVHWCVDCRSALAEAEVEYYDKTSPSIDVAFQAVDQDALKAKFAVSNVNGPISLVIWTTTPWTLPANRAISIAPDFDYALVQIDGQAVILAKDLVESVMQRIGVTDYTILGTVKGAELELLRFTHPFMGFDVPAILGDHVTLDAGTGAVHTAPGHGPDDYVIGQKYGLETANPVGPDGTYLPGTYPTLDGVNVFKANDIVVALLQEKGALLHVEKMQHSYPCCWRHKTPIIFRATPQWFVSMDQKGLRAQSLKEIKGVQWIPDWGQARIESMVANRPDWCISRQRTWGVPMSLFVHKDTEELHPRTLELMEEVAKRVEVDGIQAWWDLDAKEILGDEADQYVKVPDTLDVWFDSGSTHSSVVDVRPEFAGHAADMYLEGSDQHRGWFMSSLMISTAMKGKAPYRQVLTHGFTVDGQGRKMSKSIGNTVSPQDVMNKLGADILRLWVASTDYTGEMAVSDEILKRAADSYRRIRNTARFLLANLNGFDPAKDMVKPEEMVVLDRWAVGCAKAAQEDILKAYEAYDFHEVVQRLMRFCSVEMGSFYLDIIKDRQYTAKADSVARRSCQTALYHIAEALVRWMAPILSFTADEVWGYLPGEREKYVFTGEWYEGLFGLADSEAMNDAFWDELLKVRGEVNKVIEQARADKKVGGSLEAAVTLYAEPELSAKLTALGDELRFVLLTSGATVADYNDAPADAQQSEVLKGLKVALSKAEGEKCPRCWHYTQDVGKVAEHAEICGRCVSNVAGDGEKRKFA
Experimental: The extent of aminoacylation of tRNA with isoleucine catalyzed by isoleucyl-tRNA synthetase enzyme was measured by monitoring the incorporation of [3H] isoleucine into trichloroacetic acid-precipitable tRNA in the presence of a compound of Formula I, as compared with activity in the absence of inhibitor. The isoleucyl-tRNA synthetase enzymes are well known in the prior art and can be obtained and purified by known methods (for example see: D. Kern et at., Biochimie, 61, 1257-1272 (1979) and J. Gilbart et al., Antimicrobial Agents and Chemotherapy, 37 (1), 32-38 (1993)).
Isoleucyl-tRNA synthetase enzyme (0.08-2.0 nM, preferably, 0.4 nM) was first pre-incubated at 25° C. with 0.05 mg/ml bovine serum albumin, 10 mM DTT, 2.5% dimethyl sulfoxide, with or without a compound of Formula I, for 20 minutes. At this point a substrate solution (a solution containing the following: ATP, [^3 H]isoleucine, tRNA, HEPES, magnesium chloride, and potassium chloride) was added to give a final concentration of 0.0286 mg/ml bovine serum albumin, 5.7 mM DTT, 4 mM ATP, 5-20 μM [^3 H] isoleucine (1-15 Ci/mmol), 90 μM crude tRNA or 2 μM isoleucine specific tRNA, 1.4% dimethyl sulfoxide, 30 mM HEPES (pH 7.5), 10 mM magnesium chloride, and 50 mM potassium chloride and incubated at 25° C. Aliquots were removed at selected times (e.g. 5, 10, 20 minutes) and applied to 3MM filter paper discs (Whatman) and then dropped into 5% (wt/vol) trichloroacetic acid for >5 minutes. Filters were washed for three 10-minute periods in 5% trichloroacetic acid, rinsed in 95% ethanol and diethyl ether, and radioactivity was measured with Betafluor™ (National Diagnostics) by liquid scintillation counting.
Inhibitor activity is reported in Table II as an IC50 value (inhibitor concentration causing 50% inhibition of enzyme activity) per a known amount of active enzyme. In the case of irreversible inhibitors (1:1 stoichiometry) these values are 50% of the active enzyme concentration. The IC50 (in nM, E. coli) values of representative compounds of the present invention are listed in the second column of Table II.

S. aureus ATCC 14154 = experiment: Whole cell antimicrobial screen, MIC; type: cell-based; settings: Staphylococcus aureus, ATCC14154
Experimental: (§1) Compounds were tested for antimicrobial activity against a panel of organisms according to standard procedures described by the National Committee for Clinical Laboratory Standards (NCCLS document M7-A3, Vol. 13, No. 25, 1993/NCCLS document M27-P, Vol. 12, No. 25, 1992). Compounds were dissolved in 100% dimethyl sulfoxide and were diluted to the final reaction concentration (0.1 μg/mL-500 μg/mL) in microbial growth media. In al cases the final concentration of dimethyl sulfoxide incubated with cells is less than or equal to 1%. For minimum inhibitory concentration (MIC) calculations, 2-fold dilutions of compounds were added to wells of a microtiter plate containing 5×10^4 bacteria or fungal cells in a final volume of 100 lambda of an appropriate media (Mueller-Hinton Broth; Haemophilus Test Media; Mueller-Hinton Broth+5% Sheep Blood; or […]). Plates were incubated overnight at an appropriate temperature (30° C.-37° C.) and optical densities (measure of cell growth) were measured using a commercial plate reader. The MIC value is defined as the lowest compound concentration inhibiting growth of the test organism.

S. aureus ATCC 6538P = experiment: Whole cell antimicrobial screen, MIC; type: cell-based; settings: Staphylococcus aureus, ATCC6538P
Experimental: as §1

[2] = tested on: S. epidermidis ATCC 33501; experiment: Whole cell antimicrobial screen, MIC; type: cell-based; settings: Staphylococcus epidermidis, ATCC33501
Experimental: as §1

E. faecalis ATCC 33011 = experiment: Whole cell antimicrobial screen, MIC; type: cell-based; settings: Enterococcus faecalis, ATCC33011
Experimental: as §1

E. faecium ATCC 6569 = experiment: Whole cell antimicrobial screen, MIC; type: cell-based; settings: Enterococcus faecium, ATCC6569
Experimental: as §1

[3] = tested on: S. saprophyticus ATCC 35552; experiment: Whole cell antimicrobial screen, MIC; type: cell-based; settings: Staphylococcus saprophyticus, ATCC35552
Experimental: as §1

C. albicans ATCC 10231 = experiment: Whole cell antimicrobial screen, MIC; type: cell-based; settings: Candida albicans, ATCC10231
Experimental: as §1

SMILES | pIC50 [1] | MIC (S. aureus ATCC 14154) | MIC (S. aureus ATCC 6538P) | MIC [2] | MIC (E. faecalis ATCC 33011) | MIC (E. faecium ATCC 6569) | MIC [3] | MIC (C. albicans ATCC 10231)
CC[C@H](C)[C@H](N)C(=O)NS(=O)(=O)OC[C@H]1O[C@@H](CCn2nnc(-c3ccc(Oc4cccc(C(F)(F)F)c4)cc3)n2)[C@H](O)[C@@H]1O [XIV] | 8.77 | 25 µg/mL (≈ 38 µM) | 10 µg/mL (≈ 15.2 µM) | 5 µg/mL (≈ 7.59 µM) | 100 µg/mL (≈ 152 µM) | 10 µg/mL (≈ 15.2 µM) | 10 µg/mL (≈ 15.2 µM) | > 500 µg/mL
CC[C@H](C)[C@H](N)C(=O)NS(=O)(=O)OC[C@H]1O[C@@H](Cn2nnc(Cc3ccc(Oc4ccccc4)cc3)n2)[C@H](O)[C@@H]1O [XXVII, [S-(R*,R*)]-2,5-anhydro-1-deoxy-1-[5-(4-phenoxyphenylmethyl)-2H-tetrazol-2-yl]-D-allitol 6-(2-amino-3-methyl-1-oxopentyl)sulfamate] | 6.87 | > 500 µg/mL | > 500 µg/mL | > 500 µg/mL | > 500 µg/mL | > 500 µg/mL | > 500 µg/mL | > 500 µg/mL
CC[C@H](C)[C@H](N)C(=O)NS(=O)(=O)OC[C@H]1O[C@@H](CCn2nnc(-c3ccc([N+](=O)[O-])o3)n2)[C@H](O)[C@@H]1O [XXVIII] | 8.06 | 128 µg/mL (≈ 240 µM) | 128 µg/mL (≈ 240 µM) | 32 µg/mL (≈ 60 µM) | > 128 µg/mL | > 128 µg/mL | > 128 µg/mL | 500 µg/mL (≈ 937 µM)
CC[C@H](C)[C@H](N)C(=O)NS(=O)(=O)OC[C@H]1O[C@@H](CCn2nnc(-c3ccc([N+](=O)[O-])cc3)n2)[C@H](O)[C@@H]1O [VIII] | 9.30 | 500 µg/mL (≈ 920 µM) | 500 µg/mL (≈ 920 µM) | 10 µg/mL (≈ 18.4 µM) | > 500 µg/mL | 500 µg/mL (≈ 920 µM) | 100 µg/mL (≈ 184 µM) | > 500 µg/mL
CC[C@H](C)[C@H](N)C(=O)NS(=O)(=O)OC[C@H]1O[C@@H](CCn2nnc(-c3ccc(C#Cc4ccc([N+](=O)[O-])s4)cc3)n2)[C@H](O)[C@@H]1O [I, [S-(R*,R*)]-3,6-anhydro-1,2-dideoxy-1-[5-[4-[(5-nitro-2-thienyl)ethynyl]phenyl]-2H-tetrazol-2-yl]-D-allo-heptitol 7-(2-amino-3-methyl-1-oxopentyl)sulfamate] | 8.89 | 5 µg/mL (≈ 7.7 µM) | 1 µg/mL (≈ 1.54 µM) | 1 µg/mL (≈ 1.54 µM) | > 500 µg/mL | > 500 µg/mL | 2 µg/mL (≈ 3.08 µM) | > 500 µg/mL
CC[C@H](C)[C@H](N)C(=O)NS(=O)(=O)OC[C@H]1O[C@@H](CCn2nnc(-c3ccc(Oc4ccc(OC)cc4)cc3)n2)[C@H](O)[C@@H]1O [XII] | 8.52 | 50 µg/mL (≈ 80.6 µM) | 25 µg/mL (≈ 40.3 µM) | < 5 µg/mL | 500 µg/mL (≈ 806 µM) | 10 µg/mL (≈ 16.1 µM) | 25 µg/mL (≈ 40.3 µM) | 500 µg/mL (≈ 806 µM)
CC[C@H](C)[C@H](N)C(=O)NS(=O)(=O)OC[C@H]1O[C@@H](CCn2nnc(-c3ccc(Oc4ccc(N)cc4)cc3)n2)[C@H](O)[C@@H]1O [XIII] | 9.40 | 100 µg/mL (≈ 165 µM) | 50 µg/mL (≈ 82.6 µM) | 10 µg/mL (≈ 16.5 µM) | > 500 µg/mL | 25 µg/mL (≈ 41.3 µM) | 25 µg/mL (≈ 41.3 µM) | > 500 µg/mL
CC[C@H](C)[C@H](N)C(=O)NS(=O)(=O)OC[C@H]1O[C@@H](CCn2nnc(Cc3ccc(Oc4ccccc4)cc3)n2)[C@H](O)[C@@H]1O [XXX] | 8.57 | 500 µg/mL (≈ 827 µM) | 100 µg/mL (≈ 165 µM) | 25 µg/mL (≈ 41.3 µM) | 500 µg/mL (≈ 827 µM) | 100 µg/mL (≈ 165 µM) | 100 µg/mL (≈ 165 µM) | > 200 µg/mL
CC[C@H](C)[C@H](N)C(=O)NS(=O)(=O)OC[C@H]1O[C@@H](CCn2nnc(-c3ccc(Oc4ccccn4)cc3)n2)[C@H](O)[C@@H]1O [XVI] | 9.15 | 100 µg/mL (≈ 169 µM) | 100 µg/mL (≈ 169 µM) | 25 µg/mL (≈ 42.3 µM) | 500 µg/mL (≈ 845 µM) | 50 µg/mL (≈ 84.5 µM) | 50 µg/mL (≈ 84.5 µM) | 100 µg/mL (≈ 169 µM)
CC[C@H](C)[C@H](N)C(=O)NS(=O)(=O)OC[C@H]1O[C@@H](CCn2nnc(-c3ccc(C#Cc4cccc([N+](=O)[O-])c4)cc3)n2)[C@H](O)[C@@H]1O [III] | 8.52 | 50 µg/mL (≈ 77.7 µM) | 50 µg/mL (≈ 77.7 µM) | 1 µg/mL (≈ 1.55 µM) | > 500 µg/mL | > 500 µg/mL | 5 µg/mL (≈ 7.77 µM) | > 500 µg/mL
CC[C@H](C)[C@H](N)C(=O)NS(=O)(=O)OC[C@H]1O[C@@H](CCn2nnc(-c3ccc(C=C(Br)Br)cc3)n2)[C@H](O)[C@@H]1O [V] | 7.96 | 100 µg/mL (≈ 147 µM) | 50 µg/mL (≈ 73.3 µM) | 25 µg/mL (≈ 36.6 µM) | 500 µg/mL (≈ 733 µM) | 100 µg/mL (≈ 147 µM) | 25 µg/mL (≈ 36.6 µM) | 500 µg/mL (≈ 733 µM)
CC[C@H](C)[C@H](N)C(=O)NS(=O)(=O)OC[C@H]1O[C@@H](CCn2nnc(CCCOc3ccccc3)n2)[C@H](O)[C@@H]1O [XXIX] | 9.52 | > 500 µg/mL | 500 µg/mL (≈ 898 µM) | 25 µg/mL (≈ 44.9 µM) | > 500 µg/mL | > 500 µg/mL | 500 µg/mL (≈ 898 µM) | > 500 µg/mL
CC[C@H](C)[C@H](N)C(=O)NS(=O)(=O)OC[C@H]1O[C@@H](CCn2nnc(-c3ccc(Oc4ccc(Oc5ccccc5)cc4)cc3)n2)[C@H](O)[C@@H]1O [XV] | 8.74 | 10 µg/mL (≈ 14.6 µM) | 10 µg/mL (≈ 14.6 µM) | 5 µg/mL (≈ 7.32 µM) | > 500 µg/mL | 25 µg/mL (≈ 36.6 µM) | 10 µg/mL (≈ 14.6 µM) | > 500 µg/mL
CC[C@H](C)[C@H](N)C(=O)NS(=O)(=O)OC[C@H]1O[C@@H](CCn2nnc(-c3ccc(C(=O)OC)cc3)n2)[C@H](O)[C@@H]1O [VII] | 9.28 | 500 µg/mL (≈ 898 µM) | 100 µg/mL (≈ 180 µM) | 10 µg/mL (≈ 18 µM) | > 500 µg/mL | 100 µg/mL (≈ 180 µM) | 50 µg/mL (≈ 89.8 µM) | > 500 µg/mL
